Measured values reported in patent US9421254B2, “Immunostimulatory combinations of TLR ligands and methods of use” (The United States of America, as represented by the …, priority 2007, dated 2016).
Entries after “also recorded” stand apart in the source; their conditions may differ.

Assays:
BMDCs [1] = experiment: Intracellular IL-12 and CD86 on BMDCs treated in vitro with TLR ligands (flow cytometry); conditions: for inducing IL-12 production from DCs / upregulation of CD86 expression: TLR4 ligand alone; for inducing IL-12 production from DCs: relative to MALP-2+PolyI:C and PolyI:C+CpG; for upregulation of CD86 expression: relative to PolyI:C, FIG. 9B; for synergy with PolyI:C in IL-12 production: TLR2 ligand combined with PolyI:C
purified T cells = experiment: Purified T cells cultured with recombinant cytokines/chemokines (CD69); type: cell-based, mouse; conditions: added to MyD88-dependent cytokines; FIG. 12B
Experimental: Panel (A) is a graph showing the results when BMDC pretreated with MALP-2+PolyI:C were cultured with purified T cells in the presence of neutralizing antibodies against cytokines as indicated. CD69+ T cells were measured 24 hours later. Panel (B) is a graph showing the results when purified T cells were culture in the presence of IL-12 (25 ng/ml), TNFa (10 ng/ml), MIP-1a (50 ng/ml) and IP-10 (25 ng/ml) singly or in combinations as indicated. CD69+CD8+ T cells were measured after 24 hours of treatment.
As there are several MyD88-dependent inflammatory cytokines that are produced downstream of the JNK/c-Jun pathway, blocking one of these cytokines may not be expected to abolish the synergy effect.

[2] = tested on: popliteal LN MHC class II+CD11c+ DCs; experiment: DC activation in popliteal LNs after footpad immunization with TLR ligands; type: in vivo, mice; conditions: FIG. 5D
Experimental: Mice were immunized in the footpads with MALP-2, PolyI:C and CpG singly or pairwise. Paired popliteal LN cells were isolated 36 hours later for assay by flow cytometry. […] Panel (D) is a graph showing CD86 expression on DCs.
If this hypothesis were true, it may be expected that use of synergistic combinations of TLRs as adjuvant would result in similar activation of DCs in vivo. To test this hypothesis, DCs were isolated from popliteal LNs following footpad immunization with TLR ligands and examined ex vivo. […] Therefore, the interplay of TLRs in activating DCs in vivo is nonrandom and mediated through potentiating MyD88-dependent cytokines that could account for the activation of specific T cells.

BMDCs [3] = experiment: Secreted cytokines/chemokines from BMDCs treated in vitro with TLR ligands (multiplex); type: cell-based, mouse; conditions: FIG. 3D

| Compound | inducing IL-12 production from DCs (BMDCs [1]) | upregulation of CD86 expression (BMDCs [1]) | synergy with PolyI:C in IL-12 production (BMDCs [1]; FIG. 9A) | also measured |
| --- | --- | --- | --- | --- |
| lipopolysaccharide [LPS] | equivalent | efficacy equivalent to PolyI:C | – | – |
| monophosphoryl lipid A [MPL] | equivalent | efficacy equivalent to PolyI:C | – | – |
| CCCCCCCCCCCC(=O)CC(=O)N[C@H](COCC[C@@H](CCCCCCC)OC(=O)CCCCCCCCCCC)COP(=O)(O)OCCNC(=O)NCCOP(=O)(O)OC[C@@H](COCC[C@@H](CCCCCCC)OC(=O)CCCCCCCCCCC)NC(=O)CC(=O)CCCCCCCCCCC [E6020] | equivalent | efficacy equivalent to PolyI:C | – | – |
| IP-10: Recombinant IP-10 protein purchased from Peprotech | – | – | – | enhancement of the CD69 response already induced by the MyD88-dependent cytokines (purified T cells): did not significantly enhance |
| polyinosine-polycytidylic acid [PolyI:C] | – | – | – | expression of CD86 by LN DCs ([2]; ligand alone): upregulated; IL-12 production on addition to the TLR4 stimulation (BMDCs [1]; FIG. 9A): did not further enhance; CD86 expression on DCs (BMDCs [1]; ligand alone, FIG. 3C): upregulate CD86 expression; IP-10 production by DCs (BMDCs [3]; ligand alone): produce IP-10 |
| macrophage activating lipoprotein (MALP-2) | – | – | did | increase in CD86 by LN DCs when ligand included with PolyI:C [2]: no significant increases; further increase in CD86 expression compared to PolyI:C alone (BMDCs [1]; ligand added to PolyI:C, FIG. 3C): did not result in a further increase; further increase in IP-10 production compared to PolyI:C alone (BMDCs [3]; ligand added to PolyI:C): did not result in a further increase |
| Lipoteichoic acids [LTA] | – | – | could also act synergistically and did | – |
| PAM3CSK4 | – | – | could not; also recorded: did not synergize | – |
